Experimental data as given in ChEMBL document CHEMBL3098040, “Design and Discovery of 2-Arylquinazolin-4-ones as Potent and Selective Inhibitors of Tankyrases” (ACS Med Chem Lett, 2013).
pIC50: −log10 of the molar value.

Key:
[1] = molecular target: T1, Poly [ADP-ribose] polymerase tankyrase-2 (Homo sapiens, UniProt Q9H2K2); experiment: Inhibition of human tankyrase2 after 2 hrs by spectrophotometry
T1 sequence (Q9H2K2 whole entry): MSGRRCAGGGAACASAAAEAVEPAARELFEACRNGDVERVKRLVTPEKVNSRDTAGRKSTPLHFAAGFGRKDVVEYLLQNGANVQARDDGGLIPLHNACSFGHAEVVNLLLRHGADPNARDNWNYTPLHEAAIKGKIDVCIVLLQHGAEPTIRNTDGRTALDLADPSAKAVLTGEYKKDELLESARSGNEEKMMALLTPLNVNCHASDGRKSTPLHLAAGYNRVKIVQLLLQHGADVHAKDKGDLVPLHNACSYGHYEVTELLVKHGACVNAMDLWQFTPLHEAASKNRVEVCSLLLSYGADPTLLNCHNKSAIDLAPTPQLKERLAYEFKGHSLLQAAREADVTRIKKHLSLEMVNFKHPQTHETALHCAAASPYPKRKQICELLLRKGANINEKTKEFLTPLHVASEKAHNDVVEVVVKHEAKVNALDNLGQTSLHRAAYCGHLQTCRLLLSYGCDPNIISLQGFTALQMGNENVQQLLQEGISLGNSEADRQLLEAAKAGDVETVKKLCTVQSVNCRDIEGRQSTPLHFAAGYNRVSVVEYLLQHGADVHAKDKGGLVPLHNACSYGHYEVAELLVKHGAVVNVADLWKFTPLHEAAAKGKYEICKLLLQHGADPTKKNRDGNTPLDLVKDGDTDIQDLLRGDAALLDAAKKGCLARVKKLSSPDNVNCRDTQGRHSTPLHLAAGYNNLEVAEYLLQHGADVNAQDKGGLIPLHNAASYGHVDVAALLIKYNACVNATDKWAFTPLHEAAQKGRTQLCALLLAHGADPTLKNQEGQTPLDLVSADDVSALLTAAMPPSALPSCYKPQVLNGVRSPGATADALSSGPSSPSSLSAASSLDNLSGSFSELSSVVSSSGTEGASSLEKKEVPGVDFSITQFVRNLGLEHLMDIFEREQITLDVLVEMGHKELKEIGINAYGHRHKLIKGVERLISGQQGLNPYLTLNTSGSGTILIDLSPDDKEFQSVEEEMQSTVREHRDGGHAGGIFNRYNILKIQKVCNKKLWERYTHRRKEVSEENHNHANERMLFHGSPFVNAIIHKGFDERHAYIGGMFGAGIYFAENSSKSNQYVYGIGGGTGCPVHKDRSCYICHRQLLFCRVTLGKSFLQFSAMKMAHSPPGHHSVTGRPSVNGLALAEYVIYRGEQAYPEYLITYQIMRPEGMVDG

[2] = molecular target: Poly [ADP-ribose] polymerase 1 (Homo sapiens, UniProt P09874); experiment: Inhibition of PARP1 (unknown origin) after 1 hr by spectrophotometry
[3] = molecular target: T2, Poly [ADP-ribose] polymerase tankyrase-1 (Homo sapiens, UniProt O95271); experiment: Inhibition of human tankyrase1 after 30 mins by spectrophotometry
T2 sequence (O95271 whole entry): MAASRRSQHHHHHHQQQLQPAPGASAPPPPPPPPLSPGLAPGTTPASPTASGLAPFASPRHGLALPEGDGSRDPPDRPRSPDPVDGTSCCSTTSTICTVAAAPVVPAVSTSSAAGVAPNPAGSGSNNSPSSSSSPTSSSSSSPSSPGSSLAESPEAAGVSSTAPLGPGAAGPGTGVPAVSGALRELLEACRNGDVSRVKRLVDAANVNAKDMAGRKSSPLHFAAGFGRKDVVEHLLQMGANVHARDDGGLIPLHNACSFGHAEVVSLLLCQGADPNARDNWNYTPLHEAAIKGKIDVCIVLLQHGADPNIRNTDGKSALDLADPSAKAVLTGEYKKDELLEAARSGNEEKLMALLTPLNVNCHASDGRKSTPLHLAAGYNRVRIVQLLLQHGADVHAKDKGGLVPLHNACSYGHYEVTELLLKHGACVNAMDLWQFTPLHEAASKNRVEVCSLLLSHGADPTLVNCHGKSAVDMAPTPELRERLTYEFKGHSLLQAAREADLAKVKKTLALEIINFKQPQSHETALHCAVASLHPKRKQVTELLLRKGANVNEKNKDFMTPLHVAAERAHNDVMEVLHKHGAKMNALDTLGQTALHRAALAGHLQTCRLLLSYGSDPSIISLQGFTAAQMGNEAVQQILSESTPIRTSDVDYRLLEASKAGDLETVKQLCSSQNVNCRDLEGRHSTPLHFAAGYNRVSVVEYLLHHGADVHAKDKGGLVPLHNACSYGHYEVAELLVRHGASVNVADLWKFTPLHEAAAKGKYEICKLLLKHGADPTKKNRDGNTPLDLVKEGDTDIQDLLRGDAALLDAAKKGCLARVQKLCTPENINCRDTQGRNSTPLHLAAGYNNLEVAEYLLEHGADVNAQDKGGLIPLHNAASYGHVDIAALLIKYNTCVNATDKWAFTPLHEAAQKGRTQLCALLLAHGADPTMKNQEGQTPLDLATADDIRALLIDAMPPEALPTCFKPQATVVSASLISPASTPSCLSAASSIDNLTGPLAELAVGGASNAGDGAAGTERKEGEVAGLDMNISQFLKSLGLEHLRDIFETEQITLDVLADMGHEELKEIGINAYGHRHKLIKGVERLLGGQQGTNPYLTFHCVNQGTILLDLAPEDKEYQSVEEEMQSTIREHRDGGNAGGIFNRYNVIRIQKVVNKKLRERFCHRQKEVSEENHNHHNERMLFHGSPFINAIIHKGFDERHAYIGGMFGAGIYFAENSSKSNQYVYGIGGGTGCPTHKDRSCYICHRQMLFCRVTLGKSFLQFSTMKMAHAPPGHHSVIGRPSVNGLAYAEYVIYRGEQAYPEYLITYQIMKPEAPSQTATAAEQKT

[4] = molecular target: Inosine-5'-monophosphate dehydrogenase 2 (Homo sapiens, UniProt P12268); experiment: Inhibition of human recombinant IMPDH2 by spectrophotometry
[5] = molecular target: T3, Poly [ADP-ribose] polymerase tankyrase-2 (Homo sapiens) (UniProt Q9H2K2); experiment: Inhibition of human tankyrase2 at 10 nM after 2 hrs by spectrophotometry
T3 sequence (whole entry): T1 sequence (Q9H2K2 whole entry)

Homo sapiens [6] = species on record: Homo sapiens; experiment: Selectivity ratio of IC50 for PARP1 (unknown origin) to IC50 for human tankyrase2
Homo sapiens [7] = species on record: Homo sapiens; experiment: Selectivity ratio of IC50 for PARP1 (unknown origin) to IC50 for human tankyrase1

Sequence of Poly [ADP-ribose] polymerase 1 (P09874 whole entry): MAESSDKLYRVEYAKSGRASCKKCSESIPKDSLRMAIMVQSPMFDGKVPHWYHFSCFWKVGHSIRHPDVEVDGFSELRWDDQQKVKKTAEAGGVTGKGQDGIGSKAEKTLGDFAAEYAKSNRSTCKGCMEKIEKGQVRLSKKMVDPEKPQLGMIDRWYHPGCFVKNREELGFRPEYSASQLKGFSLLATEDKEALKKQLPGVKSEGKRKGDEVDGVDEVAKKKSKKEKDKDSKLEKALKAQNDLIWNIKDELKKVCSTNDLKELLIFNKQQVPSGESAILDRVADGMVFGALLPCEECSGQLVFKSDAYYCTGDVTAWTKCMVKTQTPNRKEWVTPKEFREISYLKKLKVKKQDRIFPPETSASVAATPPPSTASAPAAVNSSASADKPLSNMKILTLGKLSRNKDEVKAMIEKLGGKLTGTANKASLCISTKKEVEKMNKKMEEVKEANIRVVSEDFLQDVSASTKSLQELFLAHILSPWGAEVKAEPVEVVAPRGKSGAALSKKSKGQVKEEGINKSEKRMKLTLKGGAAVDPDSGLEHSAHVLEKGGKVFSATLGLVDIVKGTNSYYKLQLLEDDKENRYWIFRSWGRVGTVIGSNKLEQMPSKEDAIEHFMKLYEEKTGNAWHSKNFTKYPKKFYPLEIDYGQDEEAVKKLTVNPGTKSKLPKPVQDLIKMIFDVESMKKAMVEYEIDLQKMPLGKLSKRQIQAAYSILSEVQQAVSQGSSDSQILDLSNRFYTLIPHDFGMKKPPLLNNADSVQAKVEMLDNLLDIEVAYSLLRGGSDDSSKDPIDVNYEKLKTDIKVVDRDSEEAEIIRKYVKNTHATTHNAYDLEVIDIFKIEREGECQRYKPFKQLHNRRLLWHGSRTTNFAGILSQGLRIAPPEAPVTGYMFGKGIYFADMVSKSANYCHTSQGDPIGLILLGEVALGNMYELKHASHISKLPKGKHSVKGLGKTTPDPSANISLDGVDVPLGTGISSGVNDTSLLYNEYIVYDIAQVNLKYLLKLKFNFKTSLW

| pIC50 [1] | pIC50 [2] | pIC50 [3] | pIC50 [4] | inhibition [5] | Ratio IC50 (Homo sapiens [6]) | Ratio IC50 (Homo sapiens [7]) | Compound |
| --- | --- | --- | --- | --- | --- | --- | --- |
| 8.17 | 6.16 | 7.46 | < 5.00 |  |  |  | Cc1ccc(-c2nc3c(C)cccc3c(=O)[nH]2)cc1 |
|  |  |  | < 5.00 |  |  |  | Oc1nc(-c2ccc(C(F)(F)F)cc2)nc2c1CSCC2 |
| 7.92 | 6.05 | 7.43 | < 5.00 |  |  |  | COc1ccc(-c2nc3c(C)cccc3c(=O)[nH]2)cc1 |
| 7.52 |  | 7.49 | < 5.00 |  |  |  | Cc1cccc2c(O)nc(-c3ccc([N+](=O)[O-])cc3)nc12 |
|  |  |  |  | 32% |  |  | O=c1[nH]c(-c2ccc(Cl)cc2)nc2c(O)cccc12 |
|  |  |  |  | 25% |  |  | COc1cccc2c(=O)[nH]c(-c3ccc(Cl)cc3)nc12 |
| 8.52 | 5.92 | 7.28 | < 5.00 |  |  |  | Cc1cccc2c(=O)[nH]c(-c3ccc(O)cc3)nc12 |
| 7.36 | < 5.30 | 7.14 | < 5.00 |  | > 110 | > 70 | Cc1cccc2c(=O)[nH]c(-c3ccc(CNC(=O)OCc4ccccc4)cc3)nc12 |
| 8.26 | < 5.30 | 7.49 | < 5.00 |  | > 830 | > 150 | Cc1cccc2c(=O)[nH]c(-c3ccc(Br)cc3)nc12 |
|  |  |  |  | 2% |  |  | O=c1[nH]c(-c2ccc([N+](=O)[O-])cc2)nc2ccccc12 |
| 7.39 | 6.10 | 7.38 | < 5.00 |  |  |  | Cc1cccc2c(=O)[nH]c(-c3ccccc3)nc12 |
| 8.48 | 6.30 | 7.46 | < 5.00 |  | 170 | 14 | Cc1cccc2c(O)nc(-c3ccc(N)cc3)nc12 |
| 8.00 | < 5.30 | 7.32 | < 5.00 |  | > 500 | > 100 | Cc1cccc2c(O)nc(-c3ccc(C(F)(F)F)cc3)nc12 |
|  |  |  |  |  | 240 | 23 | Cc1cccc2c(O)nc(-c3ccc(O)cc3)nc12 |
| 7.40 | < 5.30 | 7.36 | < 5.00 |  |  |  | Cc1cccc2c(=O)[nH]c(-c3ccc(F)cc3)nc12 |
| 7.48 | < 5.30 | 7.44 | < 5.00 | 49% |  |  | Cc1cccc2c(=O)[nH]c(-c3ccc(Cl)cc3)nc12 |
